Tests used:
[1] = Cytotoxicity assay (CellTiter-Glo); type: cell-based; conditions: human, 72 h incubation, concentration resulting in 50% luminescent signal
Experimental: (§1) Further to the above Examples, representative compounds, prepared according to the examples were tested for potency in an HCV replicon assay (Genotype 1b) for activity against the virus (EC50) and toxicity to the cells (CC50).
(§2) Huh7 Replicon Cell Lines and Cell Culture Conditions: A luciferase-reporter genotype 1b subgenomic replicon cell line, and a genotype 1a full-length replicon cell line were obtained from Apath, LLC, Brooklyn, N.Y.: All cell lines were passaged twice a week by splitting 4 or 6 fold. Cells were maintained in DMEM-high glucose medium (HyClone, Logan, Utah) supplemented with 9% FBS (HyClone), 2 mM glutamine (Invitrogen, Carlsbad, Calif.), 100 U/mL PenStrep (Invitrogen). Media also contained 0.25 mg/mL of the antibiotic G-418 to maintain stable expression of the replicon (Invitrogen). Incubation was performed at 37° C. in 5% CO2 atmosphere. Replicon cell lines were used until they accumulated 15-to-18 passages, after which cells were restarted from the frozen stock. Seeding cell counts were routinely determined using an automatic Cedex HiRes cell counter (Flownomics Analytical Instruments, Madison, Wis.) or manually using INCYTO C-Chip™ Disposable Hemacytometers (Fisher Scientific, Pittsburg, Pa.).
Cytotoxicity Assay. Cells were seeded into 96-well plates at a density of 2×10^4 cells per well. 24 h after cell plating, 11 serial 2× compound dilutions, starting with 100 µM, were applied to the testing plates (3 repeats per compound dilution). Each testing plate was run with a “no-compound” control. Incubation with compounds was continued at 37° C. in a CO2 incubator for 72 h. To determine cell viability, the CellTiter-Glo® assay (Promega, Madison, Wis.) was performed according to the manufacturer's protocol. The compound concentration resulting in 50% luminescent signal was reported as the CC50 concentration.

[2] = test system: HCV replicon (Genotype 1b); assay: Luciferase genotype 1b replicon potency assay; type: cell-based, hepatitis C virus; conditions: Hepatitis C virus, Huh-7, Huh7 luciferase-reporter genotype 1b subgenomic replicon cells; Renilla luciferase reporter activity; 50% decrease vs untreated cells
Experimental: as §1, §2
Luciferase Genotype 1b Replicon Potency Assay. Replicon cells were seeded into white 96-well plates (Nunc/VWR) at a density of 2×10^4 cells/well in medium without G-418. A Stacker Multidrop Liquid Dispenser (MTX Lab Systems, Vienna, Va.) was employed to ensure uniform and fast cell seeding into multiple plates. 18-24 h after cell plating, inhibitors were added and cells were incubated for additional 24, 48, or 72 h (as indicated). Compounds were tested in triplicates and quadruplicates at 3× or 4× serial dilutions over a range of 0.0001-to-10 μM concentrations. HCV replication was monitored by Renilla luciferase reporter activity assay using Renilla luciferase reporter (Promega, Madison, Wis.) and a Veritas Luminometer (Turner Biosystems, Sunnyvale, Calif.). 50% and 90% inhibitory concentration (IC50 and IC90) values were calculated as the concentration of compound that results correspondingly in 50% and 90% decreases in the reporter expression as compared to untreated cells. The values were determined by non-linear regression (four-parameter sigmoidal curve fitting) analysis.

| SMILES | CC50 at 72 h [1] | IC50 [2] | CC50 at 72 h ([1]; Huh7 HCV replicon cells (genotype 1b)) |
| --- | --- | --- | --- |
| CCOc1nc(N)nc2c1ncn2[C@@H]1O[C@H](COP(=O)(N[C@@H](C)C(=O)OC2CCCCC2)Oc2cccc3ccccc23)[C@@H](F)[C@@]1(C)O (stereo partly drawn) [Example 22, (2S)-Cyclohexyl 2-((((2R,3R,4S,5R)-5-(2-amino-6-ethoxy-9H-purin-9-yl)-3-fluoro-4-hydroxy-4-methyltetrahydrofuran-2-yl)methoxy)(naphthalen-1-yloxy)phosphorylamino)propanoate] | 16 µM | 0.73 µM | – |
| C[C@H](NP(=O)(OC[C@H]1O[C@@H](n2cnc3c(N4CCC4)nc(N)nc32)[C@](C)(O)[C@@H]1F)Oc1cccc2ccccc12)C(=O)OCC(C)(C)C (stereo partly drawn) [Example 23, (2S)-Neopentyl 2-((((2R,3R,4S,5R)-5-(2-amino-6-(azetidin-1-yl)-9H-purin-9-yl)-3-fluoro-4-hydroxy-4-methyltetrahydrofuran-2-yl)methoxy)(naphthalen-1-yloxy)phosphorylamino)propanoate] | 49 µM | 0.9 µM | – |
| C[C@H](NP(=O)(OC[C@H]1O[C@@H](n2cnc3c(N4CCC4)nc(N)nc32)[C@](C)(O)[C@@H]1F)Oc1cccc2ccccc12)C(=O)OC1CCCC1 (stereo partly drawn) [Example 24, (2S)-Cyclopentyl 2-((((2R,3R,4S,5R)-5-(2-amino-6-(azetidin-1-yl)-9H-purin-9-yl)-3-fluoro-4-hydroxy-4-methyltetrahydrofuran-2-yl)methoxy)(naphthalen-1-yloxy)phosphorylamino)propanoate] | 50 µM | 0.9 µM | – |
| C[C@H](NP(=O)(OC[C@H]1O[C@@H](n2cnc3c(N4CCC4)nc(N)nc32)[C@](C)(O)[C@@H]1F)Oc1cccc2ccccc12)C(=O)OC1CCCCC1 (stereo partly drawn) [Example 25, (2S)-Cyclohexyl 2-((((2R,3R,4S,5R)-5-(2-amino-6-(azetidin-1-yl)-9H-purin-9-yl)-3-fluoro-4-hydroxy-4-methyltetrahydrofuran-2-yl)methoxy)(naphthalen-1-yloxy)phosphorylamino)propanoate] | 33 µM | 0.95 µM | – |
| COc1nc(N)nc2c1ncn2[C@@H]1O[C@H](COP(=O)(N[C@H](C(=O)OCc2ccccc2)C(C)C)Oc2cccc3ccccc23)[C@@H](F)[C@@]1(C)O (stereo partly drawn) [Example 26, (2S)-Benzyl 2-((((2R,3R,4S,5R)-5-(2-amino-6-methoxy-9H-purin-9-yl)-3-fluoro-4-hydroxy-4-methyltetrahydrofuran-2-yl)methoxy)(naphthalen-1-yloxy)phosphorylamino)-3-methylbutanoate] | 14 µM | 4 µM | – |
| COc1nc(N)nc2c1ncn2[C@@H]1O[C@H](COP(=O)(N[C@@H](C)C(=O)OCC(C)(C)C)N[C@@H](C)C(=O)OCC(C)(C)C)[C@@H](F)[C@@]1(C)O [Example 27, (2S,2′S)-Neopentyl 2,2′-((((2R,3R,4S,5R)-5-(2-amino-6-methoxy-9H-purin-9-yl)-3-fluoro-4-hydroxy-4-methyltetrahydrofuran-2-yl)methoxy)phosphoryl)bis(azanediyl)dipropanoate] | – | 2.1 µM | > 100 µM |
| COc1nc(N)nc2c1ncn2[C@@H]1O[C@H](COP(=O)(N[C@@H](C)C(=O)OCc2ccccc2)Oc2cccc3ccccc23)[C@H](F)[C@@]1(C)O (stereo partly drawn) [Example 28, (2S)-Benzyl 2-((((2R,3S,4S,5R)-5-(2-amino-6-methoxy-9H-purin-9-yl)-3-fluoro-4-hydroxy-4-methyltetrahydrofuran-2-yl)methoxy)(naphthalen-1-yloxy)phosphorylamino)propanoate] | 92 µM | > 40 µM | – |
| COc1nc(N)nc2c1ncn2[C@@H]1O[C@H](COP(=O)(N[C@@H](C)C(=O)OCC(C)(C)C)Oc2cccc3ccccc23)[C@H](F)[C@@]1(C)O (stereo partly drawn) [Example 29, (2S)-Neopentyl 2-((((2R,3S,4S,5R)-5-(2-amino-6-methoxy-9H-purin-9-yl)-3-fluoro-4-hydroxy-4-methyltetrahydrofuran-2-yl)methoxy)(naphthalen-1-yloxy)phosphorylamino)propanoate] | 40 µM | 26 µM | – |
| COc1nc(N)nc2c1ncn2[C@@H]1O[C@H](COP(=O)(N[C@H](C(=O)OCc2ccccc2)C(C)C)Oc2cccc3ccccc23)[C@H](F)[C@@]1(C)O (stereo partly drawn) [Example 30, (2S)-Benzyl 2-((((2R,3S,4S,5R)-5-(2-amino-6-methoxy-9H-purin-9-yl)-3-fluoro-4-hydroxy-4-methyltetrahydrofuran-2-yl)methoxy)(naphthalen-1-yloxy)phosphorylamino)-3-methylbutanoate] | 19 µM | 11 µM | – |
| C[C@H](NP(=O)(OC[C@H]1O[C@@H](n2cnc3c(N)ncnc32)[C@](C)(O)[C@@H]1F)Oc1cccc2ccccc12)C(=O)OCC(C)(C)C (stereo partly drawn) [Example 31, (2S)-Neopentyl 2-((((2R,3R,4S,5R)-5-(6-amino-9H-purin-9-yl)-3-fluoro-4-hydroxy-4-methyltetrahydrofuran-2-yl)methoxy)(naphthalen-1-yloxy)phosphorylamino)propanoate] | 31 µM | 11 µM | – |
| C[C@H](NP(=O)(OC[C@H]1O[C@@H](n2ccc(N)nc2=O)[C@](C)(O)[C@@H]1F)Oc1cccc2ccccc12)C(=O)OCC(C)(C)C (stereo partly drawn) [Example 32, (2S)-Neopentyl 2-((((2R,3R,4S,5R)-5-(4-amino-2-oxopyrimidin-1(2H)-yl)-3-fluoro-4-hydroxy-4-methyltetrahydrofuran-2-yl)methoxy)(naphthalen-1-yloxy)phosphorylamino)propanoate] | > 100 µM | > 40 µM | – |
| C[C@H](NP(=O)(OC[C@H]1O[C@@H](n2ccc(=O)[nH]c2=O)[C@](C)(O)[C@@H]1F)Oc1cccc2ccccc12)C(=O)OCC(C)(C)C (stereo partly drawn) [Example 33, (2 S)-Neopentyl 2-((((2R,3R,4S,5R)-5-(2,4-dioxo-3,4-dihydropyrimidin-1(2H)-yl)-3-fluoro-4-hydroxy-4-methyltetrahydrofuran-2-yl)methoxy)(naphthalen-1-yloxy)phosphorylamino)propanoate] | 75 µM | > 40 µM | – |

— patent publication US20140286903A1, “Substituted Purine Nucleosides, Phosphoramidate and Phosphordiamidate Derivatives for Treatment if Viral Infections” (INHIBITEX, INC., priority 2011, published 2014)
